Data on ten molecules can be found in patent US9896445B2, “Heterocyclic inhibitors of ERK1 and ERK2 and their use in the treatment of cancer” (Asana Biosciences, LLC, priority 2015, dated 2018).

SMILES strings stand for the structures.

In one assay the target is T1, ERK1 (Homo sapiens, UniProt P27361).
T1 construct: purchased Jubilant Biosys
In words: ERK1 HTRF (biochemical) assay. The following applies: HTRF. As for the experimental part:
ERK1 and ERK2 HTRF (Biochemical) Assays
These assays employed a homogeneous time resolved fluorescence (HTRF) technique. […] The plate was incubated at room temperature for 60 min with shaking. […] The IC50 values (half maximal inhibitory concentration values) were subsequently determined using a sigmoidal dose-response curve (variable slope) in GraphPad Prism® 5 software.

The next assay addresses T2, ERK2 (Homo sapiens, UniProt P28482).
T2 construct: purchased Jubilant Biosys
The assay can be described thus: ERK2 HTRF (biochemical) assay. The note with it: HTRF. The method in brief:
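Compounds were tested as half-log dilutions from 0.0005 to 10 uM in Tris pH 7.5/MgCl2 buffer, with a substrate mix of 1 uM biotin-MBP peptide and 24 uM ATP and an enzyme mix of 25 nM ERK2. Reaction ran 60 min at room temperature. Phospho-MBP was detected by HTRF (Eu-anti-phospho-MBP/SA-APC, 665/620 nm), and IC50 was fitted with a variable-slope sigmoidal curve.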

T2 sequence (P28482 whole entry): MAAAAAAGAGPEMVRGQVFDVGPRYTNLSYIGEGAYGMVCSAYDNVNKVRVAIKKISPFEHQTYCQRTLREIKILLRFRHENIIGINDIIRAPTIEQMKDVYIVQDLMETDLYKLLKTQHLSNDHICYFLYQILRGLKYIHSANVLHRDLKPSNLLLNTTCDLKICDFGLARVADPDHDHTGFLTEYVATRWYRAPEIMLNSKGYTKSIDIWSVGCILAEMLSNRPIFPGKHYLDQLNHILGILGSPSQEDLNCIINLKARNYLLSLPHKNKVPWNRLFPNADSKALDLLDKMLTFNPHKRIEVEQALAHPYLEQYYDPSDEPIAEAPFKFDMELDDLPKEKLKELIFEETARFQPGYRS
T1 sequence (P27361 whole entry): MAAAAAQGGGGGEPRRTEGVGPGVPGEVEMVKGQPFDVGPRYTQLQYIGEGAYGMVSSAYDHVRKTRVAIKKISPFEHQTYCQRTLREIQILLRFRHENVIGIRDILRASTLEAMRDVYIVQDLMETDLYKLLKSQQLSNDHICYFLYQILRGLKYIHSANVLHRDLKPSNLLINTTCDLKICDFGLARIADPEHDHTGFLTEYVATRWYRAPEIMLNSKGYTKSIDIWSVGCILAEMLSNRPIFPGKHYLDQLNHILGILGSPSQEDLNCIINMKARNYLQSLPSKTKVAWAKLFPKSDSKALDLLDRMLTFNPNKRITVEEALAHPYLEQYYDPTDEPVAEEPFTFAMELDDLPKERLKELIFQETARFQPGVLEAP

For the molecule `Cc1cnc(Nc2ccc(F)cc2Cl)nc1-n1cnc(C(=O)N[C@H](CO)c2cccc(Cl)c2)c1` [Compound 241, (S)-1-(2-((2-chloro-4-fluorophenyl)-amino)-5-methyl-pyrimidin-4-yl)-N-(1-(3-chlorophenyl)-2-hydroxyethyl)-1H-imidazole-4-carboxamide], the figures for the 50% inhibitory concentration (IC50) against ERK1 and against ERK2 were under 50 nM and at most 50 nM, respectively.

Regarding `Cc1cnc(N[C@H]2CC[C@H](O)CC2)nc1-n1cnc(C(=O)N[C@H](CO)c2cccc(Cl)c2)c1` [Compound 242, N-((S)-1-(3-chlorophenyl)-2-hydroxyethyl)-1-(2-(((1r,4S)-4-hydroxycyclohexyl)amino)-5-methyl-pyrimidin-4-yl)-1H-imidazole-4-carboxamide], the IC50 is under 50 nM at ERK1 and at most 50 nM against ERK2.

With `Cc1cnc(NC2CCOCC2)nc1-n1cnc(C(=O)NCc2ccccc2CCO)c1` [Compound 243, N-(2-(2-hydroxy-ethyl)benzyl)-1-(5-methyl-2-((tetrahydro-2H-pyran-4-yl)amino)pyrimidin-4-yl)-1H-imidazole-4-carboxamide], the IC50 against ERK1 was under 50 nM; against ERK2, at most 50 nM.

For the molecule `Cc1cnc(NC2CCS(=O)(=O)C2)nc1-n1cnc(C(=O)N[C@H](CO)c2cccc(Cl)c2)c1` (stereo partly drawn) [Compound 246, N-((S)-1-(3-chlorophenyl)-2-hydroxyethyl)-1-(2-((1,1-dioxido-tetrahydrothiophen-3-yl)amino)-5-methylpyrimidin-4-yl)-1H-imidazole-4-carboxamide], the IC50 against ERK1 was under 50 nM; against ERK2, at most 50 nM.

Regarding `Cc1cnc(NC2CCOc3ccccc32)nc1-n1cnc(C(=O)N[C@H](CO)c2cccc(Cl)c2)c1` (stereo partly drawn) [Compound 247, N-((S)-1-(3-chlorophenyl)-2-hydroxyethyl)-1-(2-(chroman-4-ylamino)-5-methylpyrimidin-4-yl)-1H-imidazole-4-carboxamide], the IC50 against ERK1 is under 50 nM; at ERK2 it was at most 50 nM.

Turning to `Cc1cnc(Nc2ccc(F)cc2)nc1-n1cnc(C(=O)N[C@H](CN)c2cccc(Cl)c2)c1` [Compound 248, (S)-N-(2-amino-1-(3-chlorophenyl)-ethyl)-1-(2-((4-fluorophenyl)amino)-5-methyl-pyrimidin-4-yl)-1H-imidazole-4-carboxamide], the IC50 at ERK1 was under 50 nM; against ERK2 it was at most 50 nM.

On to `Cc1cnc(Nc2ccc(F)cc2)nc1-n1cnc(C(=O)N[C@@H](CN)c2cccc(Cl)c2)c1` [Compound 249, (R)-N-(2-amino-1-(3-chlorophenyl)-ethyl)-1-(2-((4-fluorophenyl)-amino)-5-methyl-pyrimidin-4-yl)-1H-imidazole-4-carboxamide], for which the concentration for half-maximal inhibition (IC50) at ERK1 lay in the range of 500 to 2500 nM; at ERK2, 100 to 500 nM.

Regarding `Cc1cnc(NC2CCOC(C)C2)nc1-n1cnc(C(=O)N[C@H](CO)c2cccc(Cl)c2)c1` (stereo partly drawn) [Compound 251, N-((S)-1-(3-chlorophenyl)-2-hydroxyethyl)-1-(5-methyl-2-((2-methyltetrahydro-2H-pyran-4-yl)amino)pyrimidin-4-yl)-1H-imidazole-4-carboxamide], the IC50 at ERK1 was under 50 nM; at ERK2, at most 50 nM.

Consider `Cc1cnc(NC2CCOCC2)nc1-n1cnc(C(=O)NC(c2cccc(Cl)c2)C(C)O)c1` (centres unmarked) [Compound 253, N-(1-(3-chlorophenyl)-2-hydroxypropyl)-1-(5-methyl-2-((tetrahydro-2H-pyran-4-yl)amino)-pyrimidin-4-yl)-1H-imidazole-4-carboxamide], for which the IC50 was under 50 nM at ERK1 and at most 50 nM on ERK2.

`Cc1cnc(N[C@H]2CCOC2)nc1-n1cnc(C(=O)N[C@H](CN)c2cccc(Cl)c2)c1` [Example 255, N-((S)-2-amino-1-(3-chlorophenyl)-ethyl)-1-(5-methyl-2-(((S)-tetrahydro-furan-3-yl)amino)-pyrimidin-4-yl)-1H-imidazole-4-carboxamide]: the IC50 is under 50 nM against ERK1 and at most 50 nM against ERK2.
